From paper PMC2358886, “Evolution of pharmacologic specificity in the pregnane X receptor” (BMC Evolutionary Biology, 2008) come the findings set out here.

pEC50: −log10 of the molar value. Where two headings read alike, the source gives them in different places.

The target of series [1] is T1, human PXR (Homo sapiens, UniProt O75469).
T1 sequence (O75469 1-434): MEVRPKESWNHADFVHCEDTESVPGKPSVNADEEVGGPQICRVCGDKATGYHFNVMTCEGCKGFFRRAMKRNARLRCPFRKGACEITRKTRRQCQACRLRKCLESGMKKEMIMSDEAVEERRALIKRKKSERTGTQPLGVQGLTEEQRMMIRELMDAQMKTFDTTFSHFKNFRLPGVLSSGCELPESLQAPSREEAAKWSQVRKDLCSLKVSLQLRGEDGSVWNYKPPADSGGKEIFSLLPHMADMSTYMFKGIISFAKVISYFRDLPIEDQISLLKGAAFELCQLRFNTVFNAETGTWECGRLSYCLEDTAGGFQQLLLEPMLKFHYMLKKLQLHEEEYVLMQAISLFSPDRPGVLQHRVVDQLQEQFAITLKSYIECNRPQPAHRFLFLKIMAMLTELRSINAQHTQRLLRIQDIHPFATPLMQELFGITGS
Kind of series: PXR activation luciferase reporter assay, human PXR in HepG2-NTCP cells.

Series [2] deals with HepG2 cells.
For series [3], the target named is T2, zebrafish PXR (Danio rerio, UniProt A5WYG8).
T2 sequence (A5WYG8 144-430): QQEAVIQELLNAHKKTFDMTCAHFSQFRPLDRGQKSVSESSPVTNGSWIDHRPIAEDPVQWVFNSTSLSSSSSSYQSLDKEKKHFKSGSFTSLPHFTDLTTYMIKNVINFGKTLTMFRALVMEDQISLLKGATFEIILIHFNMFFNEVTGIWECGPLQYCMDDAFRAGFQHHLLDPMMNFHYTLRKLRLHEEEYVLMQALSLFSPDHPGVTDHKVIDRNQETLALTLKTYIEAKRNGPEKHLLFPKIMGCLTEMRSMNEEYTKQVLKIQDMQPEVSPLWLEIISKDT
Kind of series: cell-based.

In series [4] the target is T1, human PXR. Conditions: for hPXR Efficacy: human.
Series [5] addresses T2, zebrafish PXR.
Series [6] addresses T3, chicken PXR (Gallus gallus, UniProt Q9DFH3).
T3 sequence (Q9DFH3 1-391): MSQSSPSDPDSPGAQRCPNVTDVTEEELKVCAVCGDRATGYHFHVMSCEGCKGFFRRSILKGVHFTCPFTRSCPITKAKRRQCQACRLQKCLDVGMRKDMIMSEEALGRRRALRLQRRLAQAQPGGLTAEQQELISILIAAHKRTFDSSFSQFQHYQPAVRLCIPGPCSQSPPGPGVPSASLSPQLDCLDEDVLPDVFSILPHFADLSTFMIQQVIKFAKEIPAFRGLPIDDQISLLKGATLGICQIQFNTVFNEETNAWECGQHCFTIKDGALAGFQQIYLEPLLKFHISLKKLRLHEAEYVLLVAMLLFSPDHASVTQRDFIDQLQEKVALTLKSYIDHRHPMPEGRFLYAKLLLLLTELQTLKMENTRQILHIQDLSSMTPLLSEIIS
Conditions: -log(EC50), EC50 in molar units.

Series [7] concerns HepG2 cells. Nature of the series: Toxicity assays in HepG2 cells (MTT and alamar blue reduction). Conditions: lowest concentration that produced significant toxicity in the HepG2 cells.
The target in series [8] is T4, mouse PXR (Mus musculus, UniProt O54915).
T4 sequence (O54915 1-431): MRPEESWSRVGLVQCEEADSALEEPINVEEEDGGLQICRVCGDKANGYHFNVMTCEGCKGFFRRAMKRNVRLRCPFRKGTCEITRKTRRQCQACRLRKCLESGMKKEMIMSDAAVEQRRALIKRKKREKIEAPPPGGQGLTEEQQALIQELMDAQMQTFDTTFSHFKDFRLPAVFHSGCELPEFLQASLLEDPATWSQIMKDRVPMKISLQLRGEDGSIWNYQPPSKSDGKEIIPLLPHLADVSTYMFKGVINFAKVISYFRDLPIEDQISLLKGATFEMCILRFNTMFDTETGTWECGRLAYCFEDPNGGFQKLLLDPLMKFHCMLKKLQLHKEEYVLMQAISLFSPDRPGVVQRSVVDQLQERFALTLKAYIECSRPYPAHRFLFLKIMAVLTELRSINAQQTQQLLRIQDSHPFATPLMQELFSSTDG
To be noted: for Mouse PXR Activity: -log(EC50), EC50 in molar units.

Series [9] has as its target T5, rat PXR (Rattus norvegicus, UniProt Q9R1A7).
T5 sequence (Q9R1A7 1-431): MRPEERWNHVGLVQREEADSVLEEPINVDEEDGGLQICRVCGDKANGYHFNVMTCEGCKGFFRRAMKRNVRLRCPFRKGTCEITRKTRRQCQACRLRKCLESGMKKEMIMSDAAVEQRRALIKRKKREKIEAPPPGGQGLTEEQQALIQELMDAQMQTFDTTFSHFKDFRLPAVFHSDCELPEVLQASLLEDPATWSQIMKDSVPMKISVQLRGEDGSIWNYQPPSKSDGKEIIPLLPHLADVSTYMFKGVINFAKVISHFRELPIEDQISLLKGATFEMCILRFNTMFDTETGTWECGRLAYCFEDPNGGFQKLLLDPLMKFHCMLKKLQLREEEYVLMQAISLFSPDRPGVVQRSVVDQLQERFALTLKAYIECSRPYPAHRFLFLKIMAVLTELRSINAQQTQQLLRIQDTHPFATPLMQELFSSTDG
To be noted: for Rat PXR Activity: -log(EC50), EC50 in molar units.

[10] abbreviates: hPXR Activity, -log(EC50), EC50 in molar units, activation of human PXR.
[11] abbreviates: -log(EC50), EC50 in molar units, activation of zebrafish PXR.
Where [12] appears, read: relative to 20 μM pregnenolone 16α-carbonitrile, assigned an efficacy of 1.0.
Where [13] appears, read: zfPXR Activity, -log(EC50), EC50 in molar units, activation of zebrafish PXR.
Setting [14] is: relative to 20 μM 5α-androstan-3α-ol, assigned an efficacy of 1.0.

On to `C[C@@]12CCC[C@H]1[C@@H]1CC[C@@H]3C[C@H](O)CC[C@]3(C)[C@H]1CC2` [AN23, 5β-Androstan-3α-ol], for which the figures for the pEC50 in series [1] (setting [10]) and in series [3] were 5.85 and 5.59, respectively. Further, the Toxicity result in [2] was “None”. The “hPXR Efficacy” value in series [4] is on record as 1.12. Besides, the “zfPXR Efficacy” value in series [5] (zebrafish) is recorded as 0.33.
Consider `C[C@@]12C=CC[C@H]1[C@@H]1CC=C3C[C@@H](O)CC[C@]3(C)[C@H]1CC2` [AN25, Androst-5,16-dien-3β-ol], for which the Toxicity in [2] (human, 24 hr) came to 100 µM. In addition, the pEC50 in [3] was 5.60. In series [4], the “hPXR Activity” value was “None”. The “zfPXR Efficacy” value in series [5] (zebrafish) turned out to be 1.50.
Turning to `C[C@]12CC[C@@H]3c4cc(O)c(O)cc4CC[C@H]3[C@@H]1CCC2=O` [ES7, 1,3,5(10)-Estratrien-2,3-diol-17-one], the pEC50 in series [1] is 5.44; in [3], 5.74. In series [2], the Toxicity result was “None”. Moreover, the “zfPXR Efficacy” value in series [5] (zebrafish) turned out to be 0.19.
On to `C[C@H](CCC(=O)O)[C@H]1CC[C@H]2[C@@H]3[C@H](O)C[C@H]4C[C@H](O)CC[C@]4(C)[C@H]3C[C@H](O)[C@]12C` [BI031, 5α-Cholanic acid-3α,7α,12α-triol], for which the “Chicken PXR Activity” value in [6] was “No effect”. The “hPXR Activity” value in [1] (-log(EC50), EC50 in molar units, activation of human PXR) is listed as “None”. Also, in series [7], the Toxicity is 200 µM. In addition, the “zfPXR Activity” value in [5] (setting [11]) was “None”.
Regarding `C[C@H](CCC(=O)O)[C@H]1CC[C@H]2[C@@H]3[C@H](O)[C@@H](O)[C@@H]4C[C@H](O)CC[C@]4(C)[C@H]3CC[C@]12C` [BI018, α-Muricholic acid], the “Mouse PXR Activity” value in series [8] was determined as 4.59. In addition, in series [8] (setting [12]), the “Mouse PXR efficacy, ε” value worked out at 2.63. Further, the “Rat PXR Activity” value in series [9] is recorded as 3.95. Moreover, the “Rat PXR efficacy, ε” value in [9] (setting [12]) was 1.31.
Take `CC(C(=O)O)c1ccc(-c2ccccc2)c(F)c1` (centres unmarked) [MI15, Flurbiprofen]: the Toxicity result in [2] is “None”. In [3], this compound showed a pEC50 of 4.10. Also, the “hPXR Efficacy” value in [4] amounted to 1.59. Moreover, the “zfPXR Efficacy” value in series [5] (zebrafish) is 0.53.
As to `NC(=O)N1c2ccccc2CC(=O)c2ccccc21` [MI23, Oxcarbazepine], the pEC50 is 4.74 in series [1] (setting [10]) and roughly 4.70 in series [3]. This compound showed a Toxicity in [2] (human, 24 hr) of 200 µM. In series [5] (zebrafish), the “zfPXR Efficacy” value is reported as roughly 0.30.
`C[C@H](CCC(=O)NCCS(=O)(=O)O)[C@H]1CC[C@H]2[C@@H]3[C@H](O)C[C@@H]4C[C@H](O)CC[C@]4(C)[C@H]3CC[C@]12C` [BI007, Taurochenodeoxycholic acid]: in [6], the “Chicken PXR Activity” value was “No effect”.
Take `C[C@H](CCC(=O)O)[C@H]1CC[C@H]2[C@@H]3[C@@H](O)[C@@H](O)[C@@H]4C[C@H](O)CC[C@]4(C)[C@H]3CC[C@]12C` [BI019, β-Muricholic acid]: the “Mouse PXR Activity” value in [8] is reported as “No effect”. Moreover, the “Rat PXR Activity” value in series [9] is recorded as “No effect”.
For the compound `C[C@]12CCC(=O)C=C1CC[C@@H]1[C@@H]2CC[C@]2(C)C(=O)CC[C@@H]12` [AN7, 4-Androsten-3,17-dione], the pEC50 in series [1] (Human PXR EC50 (concentration class, Figure 2A), class read from box colour against the key of Figure 2) is 4.30 to 4.96; in [1] (setting [10]), 4.69; in series [3] (Zebrafish PXR EC50 (concentration class, Figure 2B), class read from box colour, same key as Figure 2A), greater than 5.00; in [3] (setting [13]), 5.44. Further, the Toxicity result in series [2] is given as “None”. Besides, the “hPXR Efficacy” value in [4] is 0.59. The “zfPXR Efficacy” value in [5] (setting [14]) came out at 0.14.
Take `C[C@]12CC[C@@H](O)C[C@@H]1CC[C@@H]1[C@@H]2CC[C@]2(C)C=CC[C@@H]12` [AN10, 5α-Androst-16-en-3α-ol]: the pEC50 in [1] was 5.26; in series [3], 5.44. In addition, the Toxicity entry in series [2] is “None”. Also, the “zfPXR Efficacy” value in series [5] (setting [14]) is listed as 1.02.
`C#C[C@]1(O)CC[C@H]2[C@@H]3CCC4=CC(=O)CC[C@@H]4[C@H]3CC[C@@]21CC` [PR27, 4-Estren-17α-ethynyl-18-homo-17β-ol-3-one]: the pEC50 in series [1] (hPXR Activity) was 5.37; in [3] (setting [13]) it was 6.00. In addition, the Toxicity result in series [2] is recorded as “None”. In [5] (setting [14]), the “zfPXR Efficacy” value amounted to 0.86.
As to `CCCCOC(=O)c1ccccc1` [MI5, Butylbenzoate], the “hPXR Activity” value in [4] is given as “None”. The Toxicity entry in series [7] was “None”. The “zfPXR Activity” value in series [5] (setting [11]) is reported as “None”.
In the case of `C[C@@]12CCC[C@H]1[C@@H]1CC[C@H]3CCCC[C@]3(C)[C@H]1CC2` [AN19, 5α-Androstane], the “hPXR Activity” value in series [4] is given as “None”. In [7], this compound gave a Toxicity of 100 µM. Moreover, the “zfPXR Activity” value in [5] is “None”.
As to `C[C@@]12C=CC[C@H]1[C@@H]1CCC3=CC(=O)CC[C@]3(C)[C@H]1CC2` [AN24, Androst-4,16-dien-3-one], the figures for the pEC50 in [1] and in [3] were 5.15 and 5.96, respectively. The compound also yielded a Toxicity in series [2] (human, 24 hr) of 100 µM. In [5] (zebrafish), the “zfPXR Efficacy” value was found to be 0.17.
For `O=C(O)Cc1cccc(OCCCN(Cc2cccc(C(F)(F)F)c2Cl)CC(c2ccccc2)c2ccccc2)c1` [MI18, GW3965], the “hPXR Activity” value in series [4] is listed as “None”. This compound showed a Toxicity in [7] of 10 µM. Besides, the “zfPXR Activity” value in [5] is on record as “None”.
On to `CC(CCC(=O)O)C1CCC2C3C(O)C(O)C4CC(O)CCC4(C)C3CCC12C` (centres unmarked) [BI017, ω-Muricholic acid], for which the “Mouse PXR Activity” value in [8] is on record as “No effect”. Besides, in series [9], the “Rat PXR Activity” value is “No effect”.
In the case of `C[C@@]12CCC[C@H]1[C@@H]1CC[C@H]3C[C@@H](O)CC[C@]3(C)[C@H]1CC2` [AN20, 5α-Androstan-3β-ol], the pEC50 was 6.10 in [1] (setting [10]) and 5.57 in series [3]. In [2] (human, 24 hr), the Toxicity was found to be 50 µM. Besides, the “hPXR Efficacy” value in series [4] turned out to be 0.43. Moreover, in series [5] (zebrafish), the “zfPXR Efficacy” value amounted to 1.66.
As to `CCCOC(=O)c1ccc(O)cc1` [MI27, n-Propyl-4-hydroxybenzoate], the pEC50 in [1] (setting [10]) was 4.51; in [3], 4.28. The compound also came in with a Toxicity in [2] (human, 24 hr) of 100 µM. Also, the “zfPXR Efficacy” value in series [5] (zebrafish) is listed as 0.31.
